Laboratory results taken from PMC8231556, “Inhibiting Endothelial Cell Function in Normal and Tumor Angiogenesis Using BMP Type I Receptor Macrocyclic Kinase Inhibitors” (Cancers, 2021).

Test system: HUVECs
Assay: Cord formation assay, HUVEC-eGFP co-cultured with human dermal fibroblasts
Type: cell-based
Settings: VEGF 15 ng/mL, 6 days; 0.5 µM (Sunitinib 1 μM)
Description: The cord formation assay was performed according to the IncuCyte Angiogenesis PrimeKit Assay protocol (Cell Player Angiogenesis PrimeKit, Essen BioScience). In brief, GFP labeled HUVEC cells and human dermal fibroblasts were mixed in a 1:20 ratio and seeded per well in a 96-well plate (3150 cells in total). Thereafter, the cells were exposed to VEGF alone or in combination with the compounds (at indicated concentrations) in a complete assay medium. Pictures were captured every 6 h for up to 9 days To monitor the cord formation. The medium was refreshed every 2 or 3 days. Cords formation was visualized by the GFP fluorescence, and cord length was quantified with the instrument’s software. All the experiments were repeated at least three times, and representative experiments are shown.

## CCN(CC)CCNC(=O)c1c(C)[nH]c(/C=C2\C(=O)Nc3ccc(F)cc32)c1C [Sunitinib, reference compound]
  effect on VEGF-induced EC cord formation: strongly suppressed
